# In the NIST ThermoML archive (doi:10.1016/j.jct.2015.10.001):
# Numbers after ± are expanded uncertainties.
# Assay: mn = molality of the nth substance listed, in mol/kg
# Settings: 100 kPa, Liquid; for viscosity: Capillary tube (Ostwald / Ubbelohde) method; for electrical conductivity: Direct current cell with electrodes; for mass density: Vibrating tube method
smiles,measurement,setting,value
CCCCn1cc[n+](C)c1.O=C([O-])c1ccccc1O [1-butyl-3-methylimidazolium salicylate] + O,viscosity,"293.15 K, m1 = 0.0058",1.031 ± 0.021 mPa·s
same,viscosity,"293.15 K, m1 = 0.0071",1.035 ± 0.022 mPa·s
same,viscosity,"293.15 K, m1 = 0.0117",1.046 ± 0.022 mPa·s
same,viscosity,"293.15 K, m1 = 0.0205",1.065 ± 0.022 mPa·s
same,viscosity,"293.15 K, m1 = 0.0353",1.091 ± 0.023 mPa·s
same,viscosity,"293.15 K, m1 = 0.0384",1.096 ± 0.023 mPa·s
same,viscosity,"293.15 K, m1 = 0.0552",1.123 ± 0.023 mPa·s
same,viscosity,"293.15 K, m1 = 0.0765",1.155 ± 0.024 mPa·s
same,electrical conductivity,"293.15 K, m1 = 0.001",0.007 ± 0.0012 S/m
same,electrical conductivity,"293.15 K, m1 = 0.0037",0.0231 ± 0.0013 S/m
same,electrical conductivity,"293.15 K, m1 = 0.0062",0.0356 ± 0.0014 S/m
same,electrical conductivity,"293.15 K, m1 = 0.0072",0.0399 ± 0.0015 S/m
same,electrical conductivity,"293.15 K, m1 = 0.008",0.0439 ± 0.0016 S/m
same,electrical conductivity,"293.15 K, m1 = 0.01",0.0517 ± 0.0017 S/m
same,electrical conductivity,"293.15 K, m1 = 0.0144",0.0674 ± 0.0021 S/m
same,electrical conductivity,"293.15 K, m1 = 0.0221",0.0901 ± 0.0028 S/m
same,mass density,"293.15 K, m1 = 0.00579",998.44 ± 1.6 kg/m3
same,mass density,"293.15 K, m1 = 0.007",998.49 ± 1.6 kg/m3
same,mass density,"293.15 K, m1 = 0.00801",998.53 ± 1.6 kg/m3
same,mass density,"293.15 K, m1 = 0.01056",998.64 ± 1.6 kg/m3
same,mass density,"293.15 K, m1 = 0.01278",998.73 ± 1.6 kg/m3
same,mass density,"293.15 K, m1 = 0.0158",998.86 ± 1.6 kg/m3
same,mass density,"293.15 K, m1 = 0.01707",998.92 ± 1.6 kg/m3
same,mass density,"293.15 K, m1 = 0.02056",999.07 ± 1.6 kg/m3
same,mass density,"293.15 K, m1 = 0.02523",999.27 ± 1.6 kg/m3
same,viscosity,"298.15 K, m1 = 0.0058",0.925 ± 0.019 mPa·s
same,viscosity,"298.15 K, m1 = 0.0071",0.93 ± 0.019 mPa·s
same,viscosity,"298.15 K, m1 = 0.0117",0.943 ± 0.02 mPa·s
same,viscosity,"298.15 K, m1 = 0.0205",0.964 ± 0.02 mPa·s
same,viscosity,"298.15 K, m1 = 0.0353",0.993 ± 0.021 mPa·s
same,viscosity,"298.15 K, m1 = 0.0384",0.998 ± 0.021 mPa·s
same,viscosity,"298.15 K, m1 = 0.0552",1.026 ± 0.021 mPa·s
same,viscosity,"298.15 K, m1 = 0.0765",1.058 ± 0.022 mPa·s
same,electrical conductivity,"298.15 K, m1 = 0.001",0.0079 ± 0.0014 S/m
same,electrical conductivity,"298.15 K, m1 = 0.0037",0.0262 ± 0.0015 S/m
same,electrical conductivity,"298.15 K, m1 = 0.0062",0.0404 ± 0.0016 S/m
same,electrical conductivity,"298.15 K, m1 = 0.0072",0.0452 ± 0.0017 S/m
same,electrical conductivity,"298.15 K, m1 = 0.008",0.0498 ± 0.0018 S/m
same,electrical conductivity,"298.15 K, m1 = 0.01",0.0588 ± 0.002 S/m
same,electrical conductivity,"298.15 K, m1 = 0.0144",0.0771 ± 0.0024 S/m
same,electrical conductivity,"298.15 K, m1 = 0.0221",0.103 ± 0.0032 S/m
same,mass density,"298.15 K, m1 = 0.00579",997.28 ± 1.6 kg/m3
same,mass density,"298.15 K, m1 = 0.007",997.33 ± 1.6 kg/m3
same,mass density,"298.15 K, m1 = 0.00801",997.37 ± 1.6 kg/m3
same,mass density,"298.15 K, m1 = 0.01056",997.48 ± 1.6 kg/m3
same,mass density,"298.15 K, m1 = 0.01278",997.57 ± 1.6 kg/m3
same,mass density,"298.15 K, m1 = 0.0158",997.7 ± 1.6 kg/m3
same,mass density,"298.15 K, m1 = 0.01707",997.75 ± 1.6 kg/m3
same,mass density,"298.15 K, m1 = 0.02056",997.9 ± 1.6 kg/m3
same,mass density,"298.15 K, m1 = 0.02523",998.11 ± 1.6 kg/m3
same,viscosity,"303.15 K, m1 = 0.0058",0.838 ± 0.017 mPa·s
same,viscosity,"303.15 K, m1 = 0.0071",0.842 ± 0.018 mPa·s
same,viscosity,"303.15 K, m1 = 0.0117",0.857 ± 0.018 mPa·s
same,viscosity,"303.15 K, m1 = 0.0205",0.879 ± 0.018 mPa·s
same,viscosity,"303.15 K, m1 = 0.0353",0.911 ± 0.019 mPa·s
same,viscosity,"303.15 K, m1 = 0.0384",0.917 ± 0.019 mPa·s
same,viscosity,"303.15 K, m1 = 0.0552",0.945 ± 0.02 mPa·s
same,viscosity,"303.15 K, m1 = 0.0765",0.979 ± 0.02 mPa·s
same,electrical conductivity,"303.15 K, m1 = 0.001",0.0089 ± 0.0016 S/m
same,electrical conductivity,"303.15 K, m1 = 0.0037",0.0297 ± 0.0017 S/m
same,electrical conductivity,"303.15 K, m1 = 0.0062",0.0454 ± 0.0018 S/m
same,electrical conductivity,"303.15 K, m1 = 0.0072",0.0507 ± 0.0019 S/m
same,electrical conductivity,"303.15 K, m1 = 0.008",0.0559 ± 0.002 S/m
same,electrical conductivity,"303.15 K, m1 = 0.01",0.0659 ± 0.0022 S/m
same,electrical conductivity,"303.15 K, m1 = 0.0144",0.0871 ± 0.0027 S/m
same,electrical conductivity,"303.15 K, m1 = 0.0221",0.118 ± 0.0036 S/m
same,mass density,"303.15 K, m1 = 0.00579",995.88 ± 1.6 kg/m3
same,mass density,"303.15 K, m1 = 0.007",995.93 ± 1.6 kg/m3
same,mass density,"303.15 K, m1 = 0.00801",995.97 ± 1.6 kg/m3
same,mass density,"303.15 K, m1 = 0.01056",996.07 ± 1.6 kg/m3
same,mass density,"303.15 K, m1 = 0.01278",996.17 ± 1.6 kg/m3
same,mass density,"303.15 K, m1 = 0.0158",996.29 ± 1.6 kg/m3
same,mass density,"303.15 K, m1 = 0.01707",996.35 ± 1.6 kg/m3
same,mass density,"303.15 K, m1 = 0.02056",996.5 ± 1.6 kg/m3
same,mass density,"303.15 K, m1 = 0.02523",996.7 ± 1.6 kg/m3
same,viscosity,"308.15 K, m1 = 0.0058",0.765 ± 0.016 mPa·s
same,viscosity,"308.15 K, m1 = 0.0071",0.77 ± 0.016 mPa·s
same,viscosity,"308.15 K, m1 = 0.0117",0.787 ± 0.016 mPa·s
same,viscosity,"308.15 K, m1 = 0.0205",0.811 ± 0.017 mPa·s
same,viscosity,"308.15 K, m1 = 0.0353",0.845 ± 0.018 mPa·s
same,viscosity,"308.15 K, m1 = 0.0384",0.851 ± 0.018 mPa·s
same,viscosity,"308.15 K, m1 = 0.0552",0.882 ± 0.018 mPa·s
same,viscosity,"308.15 K, m1 = 0.0765",0.916 ± 0.019 mPa·s
same,electrical conductivity,"308.15 K, m1 = 0.001",0.0099 ± 0.0017 S/m
same,electrical conductivity,"308.15 K, m1 = 0.0037",0.0328 ± 0.0018 S/m
same,electrical conductivity,"308.15 K, m1 = 0.0062",0.0501 ± 0.002 S/m
same,electrical conductivity,"308.15 K, m1 = 0.0072",0.057 ± 0.0022 S/m
same,electrical conductivity,"308.15 K, m1 = 0.008",0.0623 ± 0.0022 S/m
same,electrical conductivity,"308.15 K, m1 = 0.01",0.0745 ± 0.0025 S/m
same,electrical conductivity,"308.15 K, m1 = 0.0144",0.0986 ± 0.0031 S/m
same,electrical conductivity,"308.15 K, m1 = 0.0221",0.133 ± 0.0041 S/m
same,mass density,"308.15 K, m1 = 0.00579",994.27 ± 1.6 kg/m3
same,mass density,"308.15 K, m1 = 0.007",994.32 ± 1.6 kg/m3
same,mass density,"308.15 K, m1 = 0.00801",994.36 ± 1.6 kg/m3
same,mass density,"308.15 K, m1 = 0.01056",994.46 ± 1.6 kg/m3
same,mass density,"308.15 K, m1 = 0.01278",994.55 ± 1.6 kg/m3
same,mass density,"308.15 K, m1 = 0.0158",994.68 ± 1.6 kg/m3
same,mass density,"308.15 K, m1 = 0.01707",994.74 ± 1.6 kg/m3
same,mass density,"308.15 K, m1 = 0.02056",994.89 ± 1.6 kg/m3
same,mass density,"308.15 K, m1 = 0.02523",995.09 ± 1.6 kg/m3
same,viscosity,"313.15 K, m1 = 0.0058",0.701 ± 0.015 mPa·s
same,viscosity,"313.15 K, m1 = 0.0071",0.707 ± 0.015 mPa·s
same,viscosity,"313.15 K, m1 = 0.0117",0.723 ± 0.015 mPa·s
same,viscosity,"313.15 K, m1 = 0.0205",0.749 ± 0.016 mPa·s
same,viscosity,"313.15 K, m1 = 0.0353",0.783 ± 0.016 mPa·s
same,viscosity,"313.15 K, m1 = 0.0384",0.789 ± 0.016 mPa·s
same,viscosity,"313.15 K, m1 = 0.0552",0.819 ± 0.017 mPa·s
same,viscosity,"313.15 K, m1 = 0.0765",0.853 ± 0.018 mPa·s
same,electrical conductivity,"313.15 K, m1 = 0.001",0.011 ± 0.0019 S/m
same,electrical conductivity,"313.15 K, m1 = 0.0037",0.0362 ± 0.002 S/m
same,electrical conductivity,"313.15 K, m1 = 0.0062",0.0551 ± 0.0022 S/m
same,electrical conductivity,"313.15 K, m1 = 0.0072",0.0629 ± 0.0024 S/m
same,electrical conductivity,"313.15 K, m1 = 0.008",0.0686 ± 0.0025 S/m
same,electrical conductivity,"313.15 K, m1 = 0.01",0.0826 ± 0.0028 S/m
same,electrical conductivity,"313.15 K, m1 = 0.0144",0.111 ± 0.0035 S/m
same,electrical conductivity,"313.15 K, m1 = 0.0221",0.149 ± 0.0046 S/m
same,mass density,"313.15 K, m1 = 0.00579",992.45 ± 1.6 kg/m3
same,mass density,"313.15 K, m1 = 0.007",992.5 ± 1.6 kg/m3
same,mass density,"313.15 K, m1 = 0.00801",992.54 ± 1.6 kg/m3
same,mass density,"313.15 K, m1 = 0.01056",992.64 ± 1.6 kg/m3
same,mass density,"313.15 K, m1 = 0.01278",992.73 ± 1.6 kg/m3
same,mass density,"313.15 K, m1 = 0.0158",992.86 ± 1.6 kg/m3
same,mass density,"313.15 K, m1 = 0.01707",992.91 ± 1.6 kg/m3
same,mass density,"313.15 K, m1 = 0.02056",993.06 ± 1.6 kg/m3
same,mass density,"313.15 K, m1 = 0.02523",993.26 ± 1.6 kg/m3
